Read-outs that look alike come from different tables or passages of the source.
Key:
Format in all cases: cell-based, human
HL60 cells = assay: Determination of the IC50 in HL60 cells (trypan blue exclusion, light/dark); conditions: 10–100 µM
Procedure: Figure 1 Uptake and IC50 studies of RU complex: confocal images of OCI-AML3 cells incubated with RU-SST (50 μm) (A) and RU-Alkyne control (RU-Alk) (100μm) (B) for 4 hrs. The laser intensity was measured for alexaflour (430 nm). Uptake characteristics with values of the integrated intensity (a.u.) per cell (C). Bar graphs indicate the average integrated intensity per cell in both experimental arms. Cells analysed for RU-SST (n = 45) and RU-Alk (n = 44). Data are represented as mean ± SEM. (D) IC50 was calculated in HL60 AML cell lines. Percent cell survival was measured by trypan blue exclusion after 4 h incubation with RU-Alk (control), RU-SST (irradiated) compared to RU-SST in the absence of light (dark RU). Experiments performed for dark RU-SST (n = 6); RU-Alk (n = 3), for RU-SST (n = 3). Data are represented as mean ± SEM. […]
phenylalanine as an internal standard (Int. std.) was added to remove large proteins and the solution was centrifuged at […] for 30 min at 0 °C. […] The amount of RU-SST in each sample was determined as a ratio of the integration of the mass chromatogram of RU-SST to the int. std. […]
For this purpose, we chose a high SSTR2 expressing cell line, HL60 2 . […] The cell viability was quantified by trypan blue exclusion. IC50 values were calculated using R-statistical package. […]

CD34+ enriched CB cells = assay: CFC assay on CD34+ enriched cord blood cells; conditions: unconjugated RU-Alkyne; ±4.88% SEM; n = 6 CB samples
Procedure: Cells from cord blood (CB) were enriched for CD34^+ using the human CD34 Micro Bead Kit ultrapure (Miltenyi Biotec, Auburn, CA, USA) according to the manufacturer instructions.
To evaluate the toxicity of the bioconjugate on clonogenic progenitor cells, AML cell lines as well primary human cells were incubated with the compound for 4 hours. Subsequently, cells were washed and cell counts were determined via trypan blue exclusion. Colony forming cell unit (CFC) assays were performed as described previously. In all cases cell numbers placed in methylcellulose were calculated according to the initial cell number at the start of the experiment, not taking into account any cell loss during the incubation time. 1000 cells (OCI-AML3 and HL60) and 500 cells (THP1) were plated per dish (methocult H4330). […]
To evaluate, whether the effect of the compound was selective for AML stem and progenitor cells, we analysed the toxicity of the compound for CD34^+ enriched CB cells (n = 6). […]
Figure 3 Effect of RU-complexes on clonogenicity of normal CD34^+ cells: cells from […] CD34^+ enriched cord blood (CB) samples (n = 6) were tested for the effect of both RUSST and RU-Alkyne compounds. […] Percent reduction was determined based on the colony numbers generated from CB cells treated with RU-SST and exposed to light compared to dark RU-SST. […] Significance calculated by Mann-Whitney test ** < 0.01.

OCI-AML3 cells = assay: CFC assay (clonogenic growth in methylcellulose), OCI-AML3; conditions: unconjugated control, 4 h incubation, day 14
Procedure: (§1) To evaluate the toxicity of the bioconjugate on clonogenic progenitor cells, AML cell lines as well primary human cells were incubated with the compound for 4 hours. Subsequently, cells were washed and cell counts were determined via trypan blue exclusion. Colony forming cell unit (CFC) assays were performed as described previously. In all cases cell numbers placed in methylcellulose were calculated according to the initial cell number at the start of the experiment, not taking into account any cell loss during the incubation time. 1000 cells (OCI-AML3 and HL60) and 500 cells (THP1) were plated per dish (methocult H4330). For primary patient samples, 10,000 cells were plated per dish in methylcellulose H4330 (Stem Cell Technologies, Vancouver, BC, Canada) and supplemented with cytokines. For the CD34^+ enriched CB cells, 300 cells were plated per dish in methocult H4434 (Stem Cell Technologies, Vancouver, BC, Canada). Each experiment was performed in duplicates and values mentioned are Mean ± SEM.
We could detect a significant decrease in colony growth in the OCI AML3 cell line with a 92% reduction of colony growth when the cells were incubated with RU-SST and exposed to light compared to the cells treated with RU-SST and not exposed to light (Fig. 2A).
Significance was calculated using the Mann-Whitney test (** < 0.01). […]

[1] = tested on: primary AML patient samples (clonogenic progenitor cells); assay: CFC assay on primary AML patient samples; design: average reduction in CFC numbers, with exposure to light / % reduction of CFC: concentration or dose not given beside the values; conditions: for CFC/10^4 cells: 4 h incubation, day 14
Excerpt: Mononuclear cells were isolated from bone marrow (BM) or peripheral blood (PB) from patients with primary diagnosed AML, analyzed for their SSTR2 expression (n = 13) and cultured with the RU-SST bioconjugate to test the toxicity of the compound (n = 6). All patient samples were investigated by cytomorphological, cytogenetic and molecular analyses after written informed consent as described. Diagnosis was made according to the French-American-British criteria and the World Health Organization classification (Table 1)[11],[12]. The study was approved by the ethic committee of the University of Ulm. in accordance with the ethical principles of the declaration of Helsinki (http://www.wma.net/en/30publications/10policies/b3/index.html). Leukemic cells were thawed and kept in culture with culture conditions as mentioned previously.
as §1

IC50 (HL60 cells; 4 h incubation in the dark, washed, 470 nm LED 6 min (6.9 ± 0.9 J cm-2), probit regression, n = 3, mean ± SEM, read-out: IC50 after light irradiation): > 100 µM | IC50 (HL60 cells; 4 h incubation, not exposed to light, IC50 not reached with up to 100 µM, dark RU-SST n = 6, read-out: IC50 in the dark): > 100 µM
Compound: C#Cc1ccnc(-c2ccccn2)c1.[Cl-].[Cl-].[Ru+2].c1ccc(-c2ccccn2)nc1.c1ccc(-c2ccccn2)nc1 [RU-Alkyne]
reduction in colony numbers compared to dark RU-SST (CD34+ enriched CB cells): 18.59% | colony growth, exposed or not exposed to light (OCI-AML3 cells): no comparable reduction in colony growth | % reduction of CFC ([1]; AML#1, 6 min RU-Alk (light) vs dark RU-SST): 22% | CFC/10^4 cells ([1]; AML#1, 6 min RU-Alk (light)): 78 CFC/10^4 cells | % reduction of CFC ([1]; AML#1, Dark RU-Alk vs dark RU-SST): 0% | CFC/10^4 cells ([1]; AML#1, Dark RU-Alk): 153 CFC/10^4 cells | % reduction of CFC ([1]; AML#2, 6 min RU-Alk (light) vs dark RU-SST): 17.7% | CFC/10^4 cells ([1]; AML#2, 6 min RU-Alk (light)): 208 CFC/10^4 cells | % reduction of CFC ([1]; AML#2, Dark RU-Alk vs dark RU-SST): 2.0% | CFC/10^4 cells ([1]; AML#2, Dark RU-Alk): 247 CFC/10^4 cells | % reduction of CFC ([1]; AML#3, 6 min RU-Alk (light) vs dark RU-SST): 0% | CFC/10^4 cells ([1]; AML#3, 6 min RU-Alk (light)): 211 CFC/10^4 cells | % reduction of CFC ([1]; AML#3, Dark RU-Alk vs dark RU-SST): 0% | CFC/10^4 cells ([1]; AML#3, Dark RU-Alk): 187 CFC/10^4 cells | % reduction of CFC ([1]; AML#4, 6 min RU-Alk (light) vs dark RU-SST): 48.9% | CFC/10^4 cells ([1]; AML#4, 6 min RU-Alk (light)): 24 CFC/10^4 cells | % reduction of CFC ([1]; AML#4, Dark RU-Alk vs dark RU-SST): 38.2% | CFC/10^4 cells ([1]; AML#4, Dark RU-Alk): 29 CFC/10^4 cells | % reduction of CFC ([1]; AML#5, 6 min RU-Alk (light) vs dark RU-SST): 41.5% | CFC/10^4 cells ([1]; AML#5, 6 min RU-Alk (light)): 69 CFC/10^4 cells | % reduction of CFC ([1]; AML#5, Dark RU-Alk vs dark RU-SST): 38.9% | CFC/10^4 cells ([1]; AML#5, Dark RU-Alk): 72 CFC/10^4 cells | % reduction of CFC ([1]; AML#6, 6 min RU-Alk (light) vs dark RU-SST): 58.7% | CFC/10^4 cells ([1]; AML#6, 6 min RU-Alk (light)): 29 CFC/10^4 cells | % reduction of CFC ([1]; AML#6, Dark RU-Alk vs dark RU-SST): 48.5% | CFC/10^4 cells ([1]; AML#6, Dark RU-Alk): 36 CFC/10^4 cells | average reduction in CFC numbers, with exposure to light ([1]; RU-Alkyne with exposure to light, 6 primary AML samples, mean (SEM), not significant): 31.4%

Reference: PMC6962389, “Somatostatin receptor mediated targeting of acute myeloid leukemia by photodynamic metal complexes for light induced apoptosis” (Scientific Reports, 2020)
